In patent US12534457B2, “Heteroaryl derivative compounds, and uses thereof” (Voronoi Inc., priority 2021, dated 2026) one finds GI50 data, which are given here for 25 compounds.

The test system of one assay is Ba/F3 cells expressing EGFR Del19/C797S (EGFR DC). Kind of assay: Proliferation inhibitory activity, Ba/F3 cells expressing EGFR Del19/C797S (CellTiter-Glo). The settings on record: Mus musculus, BaF3, 72 hours of compound treatment. The assay is classed as cell-based. The gist of the method: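 Viability after 72 h of compound exposure was measured by luminescence (CellTiter-Glo) in Ba/F3 lines transduced with mutant EGFR. Final concentrations spanned 0.2 nM–5 μM over 12 threefold steps. Growth relative to untreated control gave GI50 values; each test was run three times.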
(Cellular ATP, detected with luciferase, serves as a proxy for viable cell number.)
Usually GI50 stands for the concentration at which growth is held to half of that of the control. With `COc1cc(N2CCC(N3CCN(C4CC4)CC3)CC2)ccc1Nc1cc(N2OCC[C@@H]2c2cc(F)cc(F)c2)ncn1` [Example 6, (R)—N-(4-(4-(4-cyclopropylpiperazin-1-yl)piperidin-1-yl)-2-methoxyphenyl)-6-(3-(3,5-difluorophenyl)isoxazolidin-2-yl)pyrimidin-4-amine], the GI50 lay within 50 to 500 nM. Regarding `COc1cc(N2CCC(N3CCC(N(C)C)CC3)CC2)c(-c2cnn(C)c2)cc1Nc1cc(N2OCC[C@@H]2c2cc(F)cc(F)c2)ncn1` [Example 10, (R)-1′-(4-((6-(3-(3,5-difluorophenyl)isoxazolidin-2-yl)pyrimidin-4-yl)amino)-5-methoxy-2-(1-methyl-1H-pyrazol-4-yl)phenyl)-N,N-dimethyl-[1,4′-bipiperidin]-4-amine], the GI50 is 50 to 500 nM. On the same count and under the same terms, the value for `CCN1CC2CC(C1)N2C1CCN(c2ccc(Nc3cc(N4OCC[C@@H]4c4cccc(F)c4F)ncn3)c(OC)c2)CC1` [Example 220, 6-((R)-3-(2,3-difluorophenyl)isoxazolidin-2-yl)-N-(4-(4-(3-ethyl-3,6-diazabicyclo[3.1.1]heptan-6-yl)piperidin-1-yl)-2-methoxyphenyl)pyrimidin-4-amine] was < 50 nM; that for `COc1cc(N2CCC(N(C)C)CC2)ccc1Nc1cc(N2OCC[C@@H]2c2cc(F)cc(F)c2)ncn1` [Example 22, (R)-6-(3-(3,5-difluorophenyl)isoxazolidin-2-yl)-N-(4-(4-(dimethylamino)piperidin-1-yl)-2-methoxyphenyl)pyrimidin-4-amine] was < 50 nM; that for `CO/N=C(\C)c1cc(Nc2cc(N3OCC[C@@H]3c3cccc(F)c3F)ncn2)c(OC)cc1N1CCC(N2CCN(C)CC2)CC1` [Example 146, (R,E)-1-(5-((6-(3-(2,3-difluorophenyl)isoxazolidin-2-yl)pyrimidin-4-yl)amino)-4-methoxy-2-(4-(4-methylpiperazin-1-yl)piperidin-1-yl)phenyl)ethan-1-one O-methyl oxime] was < 50 nM.

On to `COc1cc(N2CCC(N3CCN(C)CC3)CC2)ccc1Nc1cc(N2OCC[C@@H]2c2cccs2)ncn1` [Example 35, (R)—N-(2-methoxy-4-(4-(4-methylpiperazin-1-yl)piperidin-1-yl)phenyl)-6-(3-(thiophen-2-yl)isoxazolidin-2-yl)pyrimidin-4-amine], for which the concentration for 50% growth inhibition (GI50) is < 50 nM. For `CN1CCN(c2ccc(Nc3cc(N4OCC[C@@H]4c4ccccc4)ncn3)cc2OCC(F)(F)F)CC1` [Example 139, (R)—N-(4-(4-methylpiperazin-1-yl)-3-(2,2,2-trifluoroethoxy)phenyl)-6-(3-phenylisoxazolidin-2-yl)pyrimidin-4-amine], the GI50 was < 50 nM.

In the case of `COc1cc(N2C[C@H]3C[C@@H]2CO3)ccc1Nc1cc(N2OCC[C@@H]2c2ccccc2)ncn1` [Example 59, N-(4-((1R,4R)-2-oxa-5-azabicyclo[2.2.1]heptan-5-yl)-2-methoxyphenyl)-6-((R)-3-phenylisoxazolidin-2-yl)pyrimidin-4-amine], the GI50 was < 50 nM.

For the compound `COc1cc(N2CCC(N3CCN(C)C[C@@H]3C)CC2)ccc1Nc1cc(N2OCC[C@@H]2c2cccc(F)c2F)ncn1` [Example 216, 6-((R)-3-(2,3-difluorophenyl)isoxazolidin-2-yl)-N-(4-(4-((S)-2,4-dimethylpiperazin-1-yl)piperidin-1-yl)-2-methoxyphenyl)pyrimidin-4-amine], the GI50 is < 50 nM. Consider `COc1cc(Nc2cc(N3OCC[C@@H]3c3cccc(Cl)c3F)ncn2)ccc1N1CCC(N2CCN(C)CC2)CC1` [Example 125, (R)-6-(3-(3-chloro-2-fluorophenyl)isoxazolidin-2-yl)-N-(3-methoxy-4-(4-(4-methylpiperazin-1-yl)piperidin-1-yl)phenyl)pyrimidin-4-amine], for which the concentration for 50% growth inhibition (GI50) is < 50 nM.

Consider `CCC(=O)Nc1cc(Nc2cc(N3OCC[C@@H]3c3ccc(F)cc3F)ncn2)c(OC)cc1N1CCC(N2CCC(N3CCN(C)CC3)CC2)CC1` [Example 87, (R)—N-(5-((6-(3-(2,4-difluorophenyl)isoxazolidin-2-yl)pyrimidin-4-yl)amino)-4-methoxy-2-(4-(4-methylpiperazin-1-yl)-[1,4′-bipiperidin]-1′-yl)phenyl)propionamide], for which the 50% growth inhibitory concentration (GI50) was < 50 nM. `COc1cc(N2CCC(N3CCN(C)CC3)CC2)ccc1Nc1cc(N2OCC[C@@H]2c2cncc(F)c2)ncn1` [Example 169, (R)-6-(3-(5-fluoropyridin-3-yl)isoxazolidin-2-yl)-N-(2-methoxy-4-(4-(4-methylpiperazin-1-yl)piperidin-1-yl)phenyl)pyrimidin-4-amine]: the 50% growth inhibitory concentration (GI50) lay in the range of 50 to 500 nM.

For the compound `C#Cc1cc(Nc2cc(N3OCC[C@@H]3c3cccc(F)c3F)ncn2)c(OC)cc1N1CCN(C)CC1` [Example 200, (R)-6-(3-(2,3-difluorophenyl)isoxazolidin-2-yl)-N-(5-ethynyl-2-methoxy-4-(4-methylpiperazine-1-yl)phenyl)pyrimidin-4-amine], the GI50 was < 50 nM.

With `c1ccc([C@H]2CCON2c2cc(Nc3ccc(N4CCN(C5COC5)CC4)cc3)ncn2)cc1` [Example 124, (R)—N-(4-(4-(oxetan-3-yl)piperazin-1-yl)phenyl)-6-(3-phenylisoxazolidin-2-yl)pyrimidin-4-amine], the concentration for 50% growth inhibition (GI50) is < 50 nM. As for `Cc1cc(Nc2cc(N3OCC[C@@H]3c3ccccc3)ncn2)ccc1N1CCC(N2CCN(C)CC2)CC1` [Example 53, (R)—N-(3-methyl-4-(4-(4-methylpiperazin-1-yl)piperidin-1-yl)phenyl)-6-(3-phenylisoxazolidin-2-yl)pyrimidin-4-amine], the GI50 is < 50 nM. For `FC(F)(F)c1cccc(Nc2cc(N3OCC[C@@H]3c3ccccc3)ncn2)c1` [Example 73, (R)-6-(3-phenylisoxazolidin-2-yl)-N-(3-(trifluoromethyl)phenyl)pyrimidin-4-amine], the concentration for 50% growth inhibition (GI50) was in the range of 50 to 500 nM.

On to `CN1CCN(C2CCN(c3ccc(Nc4cc(N5OCC[C@@H]5c5ccccc5)ncn4)cc3)CC2)CC1` [Example 54, (R)—N-(4-(4-(4-methylpiperazin-1-yl)piperidin-1-yl)phenyl)-6-(3-phenylisoxazolidin-2-yl)pyrimidin-4-amine], for which the concentration for 50% growth inhibition (GI50) is < 50 nM. Still for that read-out and setting: the figure for `COc1cc(Nc2cc(N3OCC[C@@H]3c3ccc(F)cc3F)ncn2)ccc1N1CCC(N2CCN(C)CC2)CC1` [Example 95, (R)-6-(3-(2,4-difluorophenyl)isoxazolidin-2-yl)-N-(3-methoxy-4-(4-(4-methylpiperazin-1-yl)piperidin-1-yl)phenyl)pyrimidin-4-amine] is < 50 nM; for `COc1cc(N2CCC(N3CC4(CN(C)C4)C3)CC2)ccc1Nc1cc(N2OCC[C@@H]2c2cccc(F)c2F)ncn1` [Example 211, (R)-6-(3-(2,3-difluorophenyl)isoxazolidin-2-yl)-N-(2-methoxy-4-(4-(6-methyl-2,6-diazaspiro[3.3]heptan-2-yl)piperidin-1-yl)phenyl)pyrimidin-4-amine] it is < 50 nM; for `COc1cc(N2CCC(N3CCN(C)CC3)CC2)c(C)cc1Nc1cc(N2OCC[C@@H]2c2ccccc2)ncn1` [Example 114, (R)—N-(2-methoxy-5-methyl-4-(4-(4-methylpiperazin-1-yl)piperidin-1-yl)phenyl)-6-(3-phenylisoxazolidin-2-yl)pyrimidin-4-amine] it is < 50 nM. Same read-out and setting: the figure for `CCN1CCN(C2CCN(c3ccc(Nc4cc(N5OCC[C@@H]5c5ccccc5)ncn4)c(OC)c3)CC2)CC1` [Example 118, (R)—N-(4-(4-(4-ethylpiperazin-1-yl)piperidin-1-yl)-2-methoxyphenyl)-6-(3-phenylisoxazolidin-2-yl)pyrimidin-4-amine] is < 50 nM; for `COc1cc(SCCN(C)C)ccc1Nc1cc(N2OCC[C@@H]2c2ccccc2)ncn1` [Example 65, (R)—N-(4-((2-(dimethylamino)ethyl)thio)-2-methoxyphenyl)-6-(3-phenylisoxazolidin-2-yl)pyrimidin-4-amine] it is < 50 nM. In the case of `Fc1cccc([C@H]2CCON2c2cc(Nc3ccc([C@H]4CCON4)cc3)ncn2)c1F` [Example 174, 6-((R)-3-(2,3-difluorophenyl)isoxazolidin-2-yl)-N-(4-((R)-isoxazolidin-3-yl)phenyl)pyrimidin-4-amine], the GI50 was 50 to 500 nM.

`CC(=O)N1CCN(c2ccc(Nc3cc(N4OCC[C@@H]4c4ccccc4)ncn3)cc2)CC1` [Example 122, (R)-1-(4-(4-((6-(3-phenylisoxazolidin-2-yl)pyrimidin-4-yl)amino)phenyl)piperazin-1-yl)ethan-1-one]: the 50% growth inhibitory concentration (GI50) was < 50 nM. Still for that read-out and setting: the figure for `COc1cc(N2CCC(N3C[C@H]4C[C@@H]3CN4C)CC2)ccc1Nc1cc(N2OCC[C@@H]2c2ccccc2)ncn1` [Example 57, N-(2-methoxy-4-(4-((1R,4R)-5-methyl-2,5-diazabicyclo[2.2.1]heptan-2-yl)piperidin-1-yl)phenyl)-6-((R)-3-phenylisoxazolidin-2-yl)pyrimidin-4-amine] is < 50 nM.

For a further assay, the system named is Ba/F3 cells expressing EGFR L858R/C797S (EGFR LC). Kind of assay: Proliferation inhibitory activity, Ba/F3 cells expressing EGFR L858R/C797S (CellTiter-Glo). The settings on record: Mus musculus, BaF3, 72 hours of compound treatment. It counts as cell-based. The procedure:
The following experiments were performed to evaluate the inhibitory activity of the compounds according to the present disclosure on Ba/F3 proliferation expressing EGFR C797S, L861Q, G719A, S768I, L718Q, and/or G724S mutations.
For Ba/F3 cells, RPMI-1640 containing 10% FBS and 5 ng/ml IL-3 (R&D Systems) was used. Transduced Ba/F3 cells were cultured after adding 1 μg/ml puromycin (Invitrogen) to the same medium.
At 24 hours before treatment with the compounds, 3000 to 5000 cells were aliquoted into each well of a white clear bottom 96 well plate (Corning). The compounds were diluted in dimethyl sulfoxide (3 times dilution, 12 concentrations in total), and injected in an amount of 1 μl so that the final concentration was 0.2 nM to 5 uM. For measurement of living cells, after 72 hours of compound treatment, the cells were stored at room temperature for 10 min using CellTiter-Glo luminescentcell-viability reagent (Promega), and then luminescence intensity was measured using a reader (SynergyNeo, Biotek). Each test was repeated three times. Result values were calculated as the cell growth rate (%) compared to the control. The graphs were created using GraphPad Prism version 8.3.0 program and the GI50 values were calculated.
For the compound `COc1cc(N2CCC(N3CCN(C4CC4)CC3)CC2)ccc1Nc1cc(N2OCC[C@@H]2c2cc(F)cc(F)c2)ncn1` [Example 6, (R)—N-(4-(4-(4-cyclopropylpiperazin-1-yl)piperidin-1-yl)-2-methoxyphenyl)-6-(3-(3,5-difluorophenyl)isoxazolidin-2-yl)pyrimidin-4-amine], the GI50 lay within 50 to 500 nM.

Regarding `COc1cc(N2CCC(N3CCC(N(C)C)CC3)CC2)c(-c2cnn(C)c2)cc1Nc1cc(N2OCC[C@@H]2c2cc(F)cc(F)c2)ncn1` [Example 10, (R)-1′-(4-((6-(3-(3,5-difluorophenyl)isoxazolidin-2-yl)pyrimidin-4-yl)amino)-5-methoxy-2-(1-methyl-1H-pyrazol-4-yl)phenyl)-N,N-dimethyl-[1,4′-bipiperidin]-4-amine], the GI50 fell in the range of 50 to 500 nM.
